Data taken from paper PMC5218480 (PLoS ONE, 2017).

Test system: MV-4-11 cells
Assay: Gene expression microarray analysis (Affymetrix PrimeView) and GSEA
Assay type: cell-based, human
Parameters: RFU PODN (11730768_x_at) / Fold change /veh PODN (11730768_x_at) / RFU LINC00158 (11744669_a_at) / Fold change /veh LINC00158 (11744669_a_at) / RFU DUSP10 (11751237_a_at) / Fold change /veh DUSP10 (11751237_a_at) / RFU ID3 (11757404_x_at) / Fold change /veh ID3 (11757404_x_at) / RFU PLEKHG5 (11737974_s_at) / Fold change /veh PLEKHG5 (11737974_s_at) / RFU LRRC4B (11730491_at) / Fold change /veh LRRC4B (11730491_at) / RFU GIMAP4 (11747438_a_at) / Fold change /veh GIMAP4 (11747438_a_at) / RFU KRT8 (11758183_x_at) / Fold change /veh KRT8 (11758183_x_at) / RFU CNN1 (11734310_a_at) / Fold change /veh CNN1 (11734310_a_at) / RFU VPS37D (11726825_at) / Fold change /veh VPS37D (11726825_at) / RFU C10orf10 (11716522_x_at) / Fold change /veh C10orf10 (11716522_x_at) / RFU KIR2DL2 /// KIR2DL4 /// KIR2DL5A /// KIR2DL5B /// KIR2DS1 /// KIR2DS2 /// KIR2DS3 /// KIR2DS4 /// KIR3DL3 /// KIR3DL3 /// KIR3DS1 (11738374_at) / Fold change /veh KIR2DL2 /// KIR2DL4 /// KIR2DL5A /// KIR2DL5B /// KIR2DS1 /// KIR2DS2 /// KIR2DS3 /// KIR2DS4 /// KIR3DL3 /// KIR3DL3 /// KIR3DS1 (11738374_at) / RFU C1QL1 (11718748_at) / Fold change /veh C1QL1 (11718748_at) / RFU TMPRSS4 (11747572_a_at) / Fold change /veh TMPRSS4 (11747572_a_at) / RFU HAMP (11756126_x_at) / Fold change /veh HAMP (11756126_x_at) / RFU RNFT2 (11725882_a_at) / Fold change /veh RNFT2 (11725882_a_at) / RFU NR4A2 (11747474_a_at) / Fold change /veh NR4A2 (11747474_a_at) / RFU ABCC12 (11746883_a_at) / Fold change /veh ABCC12 (11746883_a_at) / RFU TMEM136 (11760407_x_at) / Fold change /veh TMEM136 (11760407_x_at) / RFU CLDN22 /// WWC2 (11732394_at) / Fold change /veh CLDN22 /// WWC2 (11732394_at) / RFU HLA-DPB1 (11760878_x_at) / Fold change /veh HLA-DPB1 (11760878_x_at) / RFU SPINT1 (11716480_a_at) / Fold change /veh SPINT1 (11716480_a_at) / RFU GAP43 (11754022_s_at) / Fold change /veh GAP43 (11754022_s_at) / RFU A4GNT (11735810_at) / Fold change /veh A4GNT (11735810_at) / RFU PRB3 (11715151_x_at) / Fold change /veh PRB3 (11715151_x_at) / RFU TUBB4B (11761932_at) / Fold change /veh TUBB4B (11761932_at) / RFU CAPN14 (11732068_a_at) / Fold change /veh CAPN14 (11732068_a_at) / RFU TMCC2 (11721928_a_at) / Fold change /veh TMCC2 (11721928_a_at) / RFU IRGQ (11745062_a_at) / Fold change /veh IRGQ (11745062_a_at) / RFU FAM174B (11720279_a_at) / Fold change /veh FAM174B (11720279_a_at) / RFU TMPRSS4 (11748680_a_at) / Fold change /veh TMPRSS4 (11748680_a_at) / RFU FAM212B (11763350_a_at) / Fold change /veh FAM212B (11763350_a_at) / RFU PLEKHG5 (11743358_a_at) / Fold change /veh PLEKHG5 (11743358_a_at) / RFU ZSCAN30 (11745921_a_at) / Fold change /veh ZSCAN30 (11745921_a_at) / RFU CMKLR1 (11741424_a_at) / Fold change /veh CMKLR1 (11741424_a_at) / RFU LOC101060620 /// MAPK8IP1 (11723275_at) / Fold change /veh LOC101060620 /// MAPK8IP1 (11723275_at) / RFU SPTSSB (11747773_x_at) / Fold change /veh SPTSSB (11747773_x_at) / RFU PRSS12 (11739890_at) / Fold change /veh PRSS12 (11739890_at) / RFU BIN1 (11741810_x_at) / Fold change /veh BIN1 (11741810_x_at) / RFU WNT11 (11732464_a_at) / Fold change /veh WNT11 (11732464_a_at) / RFU C10orf10 (11716521_a_at) / Fold change /veh C10orf10 (11716521_a_at) / RFU C5orf56 (11738089_at) / Fold change /veh C5orf56 (11738089_at) / RFU CYB561 (11721691_x_at) / Fold change /veh CYB561 (11721691_x_at) / RFU ANKRD19P (11752326_a_at) / Fold change /veh ANKRD19P (11752326_a_at) / RFU OR2T12 /// OR2T33 /// OR2T8 (11738714_s_at) / Fold change /veh OR2T12 /// OR2T33 /// OR2T8 (11738714_s_at) / RFU VCAN (11748164_a_at) / Fold change /veh VCAN (11748164_a_at) / RFU JSRP1 (11732532_at) / Fold change /veh JSRP1 (11732532_at) / RFU KRTAP10-11 (11738290_x_at) / Fold change /veh KRTAP10-11 (11738290_x_at) / RFU MYO3A (11730013_a_at) / Fold change /veh MYO3A (11730013_a_at) / RFU EBF3 (11725865_a_at) / Fold change /veh EBF3 (11725865_a_at) / RFU CAMK2N1 (11719241_x_at) / Fold change /veh CAMK2N1 (11719241_x_at) / RFU C5orf56 (11738088_a_at) / Fold change /veh C5orf56 (11738088_a_at) / RFU OLFML3 (11715873_a_at) / Fold change /veh OLFML3 (11715873_a_at) / RFU LOC100653217 /// NTM (11731650_a_at) / Fold change /veh LOC100653217 /// NTM (11731650_a_at) / RFU MAPK11 (11762145_a_at) / Fold change /veh MAPK11 (11762145_a_at) / RFU FIZ1 (11724087_x_at) / Fold change /veh FIZ1 (11724087_x_at) / RFU OASL (11726364_x_at) / Fold change /veh OASL (11726364_x_at) / RFU SOX15 (11748057_x_at) / Fold change /veh SOX15 (11748057_x_at) / RFU CD79A (11719716_a_at) / Fold change /veh CD79A (11719716_a_at) / RFU HIST1H1D (11736915_at) / Fold change /veh HIST1H1D (11736915_at) / RFU CASKIN2 (11723855_a_at) / Fold change /veh CASKIN2 (11723855_a_at) / RFU LOC730098 (11760151_x_at) / Fold change /veh LOC730098 (11760151_x_at) / RFU OR4N2 (11742367_at) / Fold change /veh OR4N2 (11742367_at) / RFU PRRT2 (11749266_a_at) / Fold change /veh PRRT2 (11749266_a_at) / RFU SNX32 (11753110_a_at) / Fold change /veh SNX32 (11753110_a_at) / RFU CDHR5 (11726645_a_at) / Fold change /veh CDHR5 (11726645_a_at) / RFU RCAN1 (11760418_a_at) / Fold change /veh RCAN1 (11760418_a_at) / RFU FAM167A (11723789_a_at) / Fold change /veh FAM167A (11723789_a_at) / RFU FAM26E (11764081_at) / Fold change /veh FAM26E (11764081_at) / RFU ISYNA1 (11749810_s_at) / Fold change /veh ISYNA1 (11749810_s_at) / RFU ACY1 (11761880_at) / Fold change /veh ACY1 (11761880_at) / RFU 11764098_at / Fold change /veh 11764098_at / RFU SAMD14 (11745864_x_at) / Fold change /veh SAMD14 (11745864_x_at) / RFU NPB (11741838_a_at) / Fold change /veh NPB (11741838_a_at) / RFU TMPRSS6 (11731388_a_at) / Fold change /veh TMPRSS6 (11731388_a_at) / RFU KRTAP10-2 (11738614_at) / Fold change /veh KRTAP10-2 (11738614_at) / RFU ARHGAP8 /// PRR5-ARHGAP8 (11727945_x_at) / Fold change /veh ARHGAP8 /// PRR5-ARHGAP8 (11727945_x_at) / RFU KRTAP5-7 /// NADSYN1 (11734609_at) / Fold change /veh KRTAP5-7 /// NADSYN1 (11734609_at) / RFU RASL12 (11751679_a_at) / Fold change /veh RASL12 (11751679_a_at) / RFU CDKN2B (11736163_a_at) / Fold change /veh CDKN2B (11736163_a_at) / RFU PRF1 (11729649_at) / Fold change /veh PRF1 (11729649_at) / RFU, ZNF638 /// ZNF638-IT1 / Fold change vs veh, ZNF638 /// ZNF638-IT1 / RFU, PANK3 / Fold change vs veh, PANK3 / RFU, SH3YL1 / Fold change vs veh, SH3YL1 / RFU, ZEB2 / Fold change vs veh, ZEB2 / RFU, NRIP1 / Fold change vs veh, NRIP1 / RFU, PTTG1IP / Fold change vs veh, PTTG1IP / RFU, CAPN2 / Fold change vs veh, CAPN2 / RFU, MED14 / Fold change vs veh, MED14 / RFU, SNORA58 / Fold change vs veh, SNORA58 / RFU, C1orf63 / Fold change vs veh, C1orf63 / RFU, LRRFIP1 / Fold change vs veh, LRRFIP1 / RFU, NDUFAF7 / Fold change vs veh, NDUFAF7 / RFU, SLC12A2 / Fold change vs veh, SLC12A2 / RFU, IBTK / Fold change vs veh, IBTK / RFU, ESF1 / Fold change vs veh, ESF1 / Fold change vs veh, TMEM50B / RFU, TAOK1 / Fold change vs veh, TAOK1 / RFU, ACBD3 / Fold change vs veh, ACBD3 / RFU, TMA16 / Fold change vs veh, TMA16 / RFU, RWDD3 / Fold change vs veh, RWDD3 / RFU, BCAT1 / Fold change vs veh, BCAT1 / RFU, EDEM3 / Fold change vs veh, EDEM3 / RFU, TMEM33 / Fold change vs veh, TMEM33 / RFU, WDR75 / Fold change vs veh, WDR75 / RFU, AHCTF1 / Fold change vs veh, AHCTF1 / RFU, TFRC / Fold change vs veh, TFRC / RFU, ZDHHC17 / Fold change vs veh, ZDHHC17 / RFU, NOM1 / Fold change vs veh, NOM1 / RFU, ARL8B / Fold change vs veh, ARL8B / RFU, ZBTB11 / Fold change vs veh, ZBTB11 / RFU, TAMM41 / Fold change vs veh, TAMM41 / RFU, KIAA1704 /// LOC100996395 / Fold change vs veh, KIAA1704 /// LOC100996395 / RFU, ING1 / Fold change vs veh, ING1 / RFU, TRMT61B / Fold change vs veh, TRMT61B / RFU, FUBP3 / Fold change vs veh, FUBP3 / RFU, TP53 / Fold change vs veh, TP53 / RFU, TNKS2 / Fold change vs veh, TNKS2 / RFU, ZFP14 / Fold change vs veh, ZFP14 / RFU, ACTR2 / Fold change vs veh, ACTR2 / RFU, PPP3R1 / Fold change vs veh, PPP3R1 / RFU, PIK3R1 / Fold change vs veh, PIK3R1 / RFU, HNRNPA1 / Fold change vs veh, HNRNPA1 / RFU, RNF170 / Fold change vs veh, RNF170 / RFU, ZNF28 / Fold change vs veh, ZNF28 / RFU, RNGTT / Fold change vs veh, RNGTT / RFU, OGT / Fold change vs veh, OGT / RFU, BRD1 / Fold change vs veh, BRD1 / RFU, MARS / Fold change vs veh, MARS / RFU, ZNF655 / Fold change vs veh, ZNF655 / RFU, FAHD1 / Fold change vs veh, FAHD1 / RFU, BDP1 / Fold change vs veh, BDP1 / RFU, LRRCC1 / Fold change vs veh, LRRCC1 / RFU, ARID1A / Fold change vs veh, ARID1A / RFU, ZNF146 / Fold change vs veh, ZNF146 / RFU, ZNF330 / Fold change vs veh, ZNF330 / RFU, GPN3 / Fold change vs veh, GPN3 / RFU, C9orf123 / Fold change vs veh, C9orf123 / RFU, N4BP2L2 / Fold change vs veh, N4BP2L2 / RFU, ARFIP1 / Fold change vs veh, ARFIP1 / RFU, FAM179B / Fold change vs veh, FAM179B / RFU, BCL10 / Fold change vs veh, BCL10 / RFU, UHRF1BP1L / Fold change vs veh, UHRF1BP1L / RFU, BET1 / Fold change vs veh, BET1 / RFU, CNOT2 / Fold change vs veh, CNOT2 / RFU, ZNF268 / Fold change vs veh, ZNF268 / Fold change vs veh, ZNF507 / RFU, DGCR2 / Fold change vs veh, DGCR2 / RFU, WDSUB1 / Fold change vs veh, WDSUB1 / Fold change vs veh, HSP90B1 /// MIR3652 / RFU, ADSS / Fold change vs veh, ADSS / RFU, GK / Fold change vs veh, GK / RFU, ZNF148 / Fold change vs veh, ZNF148 / RFU, TAF9 / Fold change vs veh, TAF9 / RFU, SLC1A5 / Fold change vs veh, SLC1A5 / RFU, SLMO2 / Fold change vs veh, SLMO2 / RFU, ABCC4 / Fold change vs veh, ABCC4 / RFU, LOC101060439 /// RAP1B / Fold change vs veh, LOC101060439 /// RAP1B / RFU, RFX7 / Fold change vs veh, RFX7 / RFU, GTPBP10 / Fold change vs veh, GTPBP10 / RFU, CNEP1R1 / Fold change vs veh, CNEP1R1 / RFU, BIVM-ERCC5 /// ERCC5 / Fold change vs veh, BIVM-ERCC5 /// ERCC5 / RFU, ILF3 / Fold change vs veh, ILF3 / RFU 11762660_at / Fold change /veh 11762660_at / RFU VCAN (11757783_s_at) / Fold change /veh VCAN (11757783_s_at) / RFU DDX43 (11728927_at) / Fold change /veh DDX43 (11728927_at) / RFU KRT8 (11758188_x_at) / Fold change /veh KRT8 (11758188_x_at) / RFU NKD1 (11759106_at) / Fold change /veh NKD1 (11759106_at) / RFU SRD5A1 (11742802_a_at) / Fold change /veh SRD5A1 (11742802_a_at) / RFU TPSAB1 /// TPSB2 (11721975_s_at) / Fold change /veh TPSAB1 /// TPSB2 (11721975_s_at) / RFU GSTM3 (11746129_a_at) / Fold change /veh GSTM3 (11746129_a_at) / RFU IL23R (11737362_x_at) / Fold change /veh IL23R (11737362_x_at) / RFU TMEM51 (11727254_a_at) / Fold change /veh TMEM51 (11727254_a_at) / RFU PIWIL2 (11732686_x_at) / Fold change /veh PIWIL2 (11732686_x_at) / RFU ORM1 (11744905_x_at) / Fold change /veh ORM1 (11744905_x_at) / RFU CCDC152 (11743942_at) / Fold change /veh CCDC152 (11743942_at) / RFU ECM1 (11717891_a_at) / Fold change /veh ECM1 (11717891_a_at) / RFU IL23R (11748794_a_at) / Fold change /veh IL23R (11748794_a_at) / RFU TNFAIP8L3 (11732012_x_at) / Fold change /veh TNFAIP8L3 (11732012_x_at) / RFU MBOAT4 (11741988_at) / Fold change /veh MBOAT4 (11741988_at) / RFU 11764193_at / Fold change /veh 11764193_at / RFU TMEM53 (11763286_at) / Fold change /veh TMEM53 (11763286_at) / RFU MAGEB2 (11727129_at) / Fold change /veh MAGEB2 (11727129_at) / RFU TMEM200A (11744735_a_at) / Fold change /veh TMEM200A (11744735_a_at) / RFU CCDC152 (11751479_a_at) / Fold change /veh CCDC152 (11751479_a_at) / RFU FAM211A (11726209_a_at) / Fold change /veh FAM211A (11726209_a_at) / RFU RGS16 (11746705_a_at) / Fold change /veh RGS16 (11746705_a_at) / RFU VCAN (11755009_s_at) / Fold change /veh VCAN (11755009_s_at) / RFU RHOB (11743442_s_at) / Fold change /veh RHOB (11743442_s_at) / RFU RGS16 (11720943_a_at) / Fold change /veh RGS16 (11720943_a_at) / RFU RGS16 (11720944_at) / Fold change /veh RGS16 (11720944_at) / RFU, VPS4B / Fold change vs veh, VPS4B / RFU, CREB1 / Fold change vs veh, CREB1 / RFU, DNAJC13 / Fold change vs veh, DNAJC13 / RFU, GNAQ / Fold change vs veh, GNAQ / RFU, CDK5R1 / Fold change vs veh, CDK5R1 / RFU, ZRANB3 / Fold change vs veh, ZRANB3 / RFU, CUL4A / Fold change vs veh, CUL4A / RFU, CCNY / Fold change vs veh, CCNY / RFU, UFL1 / Fold change vs veh, UFL1 / RFU, COG3 / Fold change vs veh, COG3 / RFU, DIAPH2 / Fold change vs veh, DIAPH2 / RFU, SKA2 / Fold change vs veh, SKA2 / RFU, AFF3 / Fold change vs veh, AFF3 / RFU, LMF1 / Fold change vs veh, LMF1 / RFU, IPO11 / Fold change vs veh, IPO11 / RFU, DFFB / Fold change vs veh, DFFB / RFU, FOXP1 / Fold change vs veh, FOXP1 / RFU, CARD8 / Fold change vs veh, CARD8 / RFU, STRN3 / Fold change vs veh, STRN3 / RFU, ADK / Fold change vs veh, ADK / RFU, RASSF2 / Fold change vs veh, RASSF2 / RFU, WIPF1 / Fold change vs veh, WIPF1 / RFU, LARP1B / Fold change vs veh, LARP1B / RFU, RASA1 / Fold change vs veh, RASA1 / RFU, RB1 / Fold change vs veh, RB1 / RFU, PPFIA1 / Fold change vs veh, PPFIA1 / RFU, MAT2A / Fold change vs veh, MAT2A / RFU, CCT5 / Fold change vs veh, CCT5 / RFU, WDR92 / Fold change vs veh, WDR92 / RFU, CUX1 / Fold change vs veh, CUX1 / RFU, TTC7A / Fold change vs veh, TTC7A / RFU, TMEM135 / Fold change vs veh, TMEM135 / RFU, DEPTOR / Fold change vs veh, DEPTOR / RFU, CPM / Fold change vs veh, CPM / RFU, DNAJB6 / Fold change vs veh, DNAJB6 / RFU, CACNA2D3 / Fold change vs veh, CACNA2D3 / RFU, DTX4 / Fold change vs veh, DTX4 / RFU, TFCP2 / Fold change vs veh, TFCP2 / RFU, GMCL1 /// GMCL1P1 / Fold change vs veh, GMCL1 /// GMCL1P1 / RFU, AEBP2 / Fold change vs veh, AEBP2 / RFU, SNHG1 /// SNORD22 /// SNORD25 /// SNORD26 /// SNORD27 /// SNORD28 /// SNORD29 /// SNORD31 / Fold change vs veh, SNHG1 /// SNORD22 /// SNORD25 /// SNORD26 /// SNORD27 /// SNORD28 /// SNORD29 /// SNORD31 / Fold change (Aza/veh), C12orf56 (ProbeSet 11735607_a_at) / Fold change (ACY-1035/veh), C12orf56 (ProbeSet 11735607_a_at) / Fold change (Aza/veh), FGFR1OP (ProbeSet 11751329_s_at) / Fold change (ACY-1035/veh), FGFR1OP (ProbeSet 11751329_s_at) / Fold change (Aza/veh), VPS36 (ProbeSet 11739960_a_at) / Fold change (ACY-1035/veh), VPS36 (ProbeSet 11739960_a_at) / RFU SYPL1 (11715823_x_at) / Fold change /veh SYPL1 (11715823_x_at) / RFU IGFBP7 (11715501_s_at) / Fold change /veh IGFBP7 (11715501_s_at) / RFU REEP3 (11722064_at) / Fold change /veh REEP3 (11722064_at) / RFU IGLL1 (11728026_x_at) / Fold change /veh IGLL1 (11728026_x_at): dose or concentration left out as unconfirmed
Settings: MV-4-11 cells, 48 hours

`Nc1ccc(-c2cccs2)cc1NC(=O)c1ccc2c(c1)cc(C1CC1)n2CCN1CCOCC1` [ACY-1035] was tested, and the “RFU TUBB4B (11761932_at)” value was 19.33 RFU.
